Earlier results on one compound are cited in patent US20260306436A1, “TRETINOIN LIPOSOME FORMULATIONS AND USES THEREOF TO TREAT CANCER” (Highfield BioPharmaceuticals Corporation, priority 2023, published 2026).

The conditions of data set [1]: background statement.
For data set [2] the following is noted: background statement. The source holds these as a separate data set.
For another data set, the system named is BSA. The settings on record: stated for the release system with BSA.

With `CC1=C(/C=C/C(C)=C/C=C/C(C)=C/C(=O)O)C(C)(C)CCC1` [all-trans retinoic acid], in data set [1], the Plasma half-life result is given as “short”. Further, in data set [2], the Water solubility entry is recorded as “very low”. In addition, the Protein binding rate in the data set with BSA is given as 95%.
